Results as given in ChEMBL document CHEMBL1150903, “Complement-inhibiting cucurbitacin glycosides from Picria fel-terrae” (J Nat Prod, 1998).
Calls of active or inactive are those of the source. The calls are words filed in the database; no cut-off is given here.

Legend:
[1] = Inhibition of human serum classical complement system assessed as modulation of complement pathway by classical hemolytic complement assay
[2] = Inhibition of human serum alternative complement system assessed as modulation of complement pathway by alternative hemolytic complement assay
Aspergillus niger = assay: Antifungal activity against Aspergillus niger; assay type: functional
Trichophyton rubrum = assay: Antifungal activity against Trichophyton rubrum; assay type: functional
Candida albicans = assay: Antifungal activity against Candida albicans; assay type: functional
Bacillus cereus = assay: Antibacterial activity against Bacillus cereus; assay type: functional
Escherichia coli = assay: Antibacterial activity against Escherichia coli; assay type: functional
Pseudomonas aeruginosa = assay: Antibacterial activity against Pseudomonas aeruginosa; assay type: functional
Staphylococcus aureus = assay: Antibacterial activity against Staphylococcus aureus; assay type: functional
Human alphaherpesvirus 1 = assay: Antiviral activity against HSV1 assessed as reduction factor of viral titer at 100 ug/ml; assay type: functional, organism-based
SF-295 = assay: Growth inhibition of human SF295 cells; assay type: functional
[3] = Growth inhibition of human NCI60 cells; assay type: functional
[4] = Inhibition of human serum classical complement system assessed as modulation of complement pathway at 420 uM by classical hemolytic complement assay

| Structure (SMILES) | Activity [1] | IC50 [1] [µM] | Activity [2] | IC50 [2] [µM] | MIC (Aspergillus niger) [µg/mL] | MIC (Trichophyton rubrum) [µg/mL] | MIC (Candida albicans) [µg/mL] | MIC (Bacillus cereus) [µg/mL] | MIC (Escherichia coli) [µg/mL] | MIC (Pseudomonas aeruginosa) [µg/mL] | MIC (Staphylococcus aureus) [µg/mL] | Activity (Human alphaherpesvirus 1) | GI50 (SF-295) [µM] | GI50 [3] [µM] | TGI [3] [µM] | inhibition [4] [%] |
| --- | --- | --- | --- | --- | --- | --- | --- | --- | --- | --- | --- | --- | --- | --- | --- | --- |
| CC(C)C1=CC(=O)[C@](C)([C@H]2[C@H](O)C[C@@]3(C)[C@@H]4CC=C5[C@@H](CC[C@@H](O[C@@H]6OC[C@@H](O)[C@H](O)[C@H]6O)C5(C)C)[C@]4(C)C(=O)C[C@]23C)O1 [PICFELTARRACEMIN VI] | Dose-dependent effect | 29 | Dose-dependent effect | 21 | > 100 | > 100 | > 100 | > 100 | > 100 | > 100 | > 100 | Active |  |  |  |  |
| CC(C)C1=CC(=O)[C@](C)([C@H]2[C@H](O)C[C@@]3(C)[C@@H]4CC=C5[C@@H](CC[C@@H](O[C@@H]6OC[C@@H](O)[C@H](O)[C@H]6O[C@@H]6O[C@@H](C)[C@H](O)[C@@H](O)[C@H]6O)C5(C)C)[C@]4(C)C(=O)C[C@]23C)O1 [PICFELTARRACEMIN IA] | Dose-dependent effect | 95 | Dose-dependent effect | 336 | > 100 | > 100 | > 100 | > 100 | > 100 | > 100 | > 100 | Active | 59 | > 100 | > 100 |  |
| CC(C)C1=CC(=O)[C@](C)([C@H]2[C@H](O)C[C@@]3(C)[C@@H]4CC=C5[C@@H](CC[C@@H](O[C@@H]6O[C@H](CO)[C@@H](O)[C@H](O)[C@H]6O[C@@H]6O[C@@H](C)[C@H](O)[C@@H](O)[C@H]6O)C5(C)C)[C@]4(C)C(=O)C[C@]23C)O1 [PICFELTARRACEMIN IB] | Dose-dependent effect | > 420 | Dose-dependent effect | 68 | > 100 | > 100 | > 100 | > 100 | > 100 | > 100 | > 100 | Active |  | > 100 | > 100 | 48 |
| O=C(/C=C/c1ccc(O)c(O)c1)O[C@H](Cc1ccc(O)c(O)c1)C(=O)O [ROSMARINIC ACID] |  | 81 |  | 408 |  |  |  |  |  |  |  |  |  |  |  |  |
| CC(C)C1=CC(=O)[C@](C)([C@H]2[C@H](O)C[C@@]3(C)[C@@H]4CC=C5[C@@H](CC[C@@H](O[C@@H]6OC[C@@H](O)[C@H](O[C@@H]7O[C@H](CO)[C@@H](O)[C@H](O)[C@H]7O[C@@H]7O[C@@H](C)[C@H](O)[C@@H](O)[C@H]7O)[C@H]6O)C5(C)C)[C@]4(C)C(=O)C[C@]23C)O1 [PICFELTARRACEMIN IV] | Dose-dependent effect | 131 | Dose-dependent effect | 313 | > 100 | > 100 | > 100 | > 100 | > 100 | > 100 | > 100 | Active |  |  |  |  |
